{"source": "paper PMC10254045", "about": "“Elaboration of the Effective Multi-Target Therapeutic Platform for the Treatment of Alzheimer’s Disease Based on Novel Monoterpene-Derived Hydroxamic Acids” (International Journal of Molecular Sciences, 2023)", "key": {"[1]": {"test": "DPPH radical scavenging activity", "details": "Trolox equivalent; compounds and Trolox 100 µM", "from_the_text": "DPPH is a stable chromogen radical, which is widely used to assess the antioxidant activity of biological objects, in particular when searching for potential therapeutic agents used to maintain the redox balance in the body and treat pathologies associated with the action of free radicals. In turn, the oxygen radical absorbance capacity (ORAC) analysis is based on the removal by potential antioxidants of peroxyl radicals generated by AAPH (2,2’-axobis-2-methyl-propanimidamide, dihydrochloride), preventing the degradation of the fluorescein probe.\nThe measurement of the antiradical activity of synthesized hydroxamic acids was carried out using the method described in [150]. The studied compounds were introduced into the wells of a 96-well black tablet (the final concentration was 100 microns), after which a freshly prepared solution of 2,2-diphenyl-1-picrylhydrazyl (Sigma Aldrich, St. Louis, Missouri, USA) was added. After the incubation time had elapsed, the DPPH radical-scavenging activity was measured using a multifunctional Cytation™3 tablet analyzer (BioTek Instruments, Inc., Winooski, VT, USA) at λ = 517 nm by the difference in the reduction of the DPPH radical peak between control samples containing an equivalent volume of solvent and samples with the substances under study."}, "[2]": {"biological_target": "T1, β-amyloid peptide 1-42 (Aβ1-42) (Homo sapiens, UniProt P05067)", "T1 construct": "the pathological form of β-amyloid peptide 1-42 (Sigma Aldrich); purchased Sigma Aldrich", "T1 sequence (P05067 672-713 limits assumed)": "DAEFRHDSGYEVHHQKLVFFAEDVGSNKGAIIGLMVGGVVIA", "test": "Thioflavin T fluorescent analysis of Aβ1-42 aggregation", "assay_type": "biochemical", "details": "48 h, compounds 100 µM, Thioflavin T 10 µM, 48 h registration; read-out: prevention of the aggregation of Aβ1-42", "from_the_text": "The aggregation process of β-amyloid peptide 1-42 (Aβ1-42), caused by hydrophobic interactions of peptide monomers and, as a consequence, the formation of the most toxic polymorphic structure-oligomeric fragments of Aβ, was detected using the fluorescent dye Thioflavin T (Figure 4a). This method is the most widely used for selective staining and the identification of amyloid aggregates, which is confirmed by a large number of works. Fluorescence analysis using Thioflavin T made it possible to monitor the aggregation process of the pathological form of β-amyloid peptide 1-42 (Sigma Aldrich, St. Louis, MI, USA). The experimental protocol was carried out similarly to that described in [58] with some modifications. The registration of changes in the fluorescence of thioflavin T (10 µM, Sigma Aldrich, St. Louis, MI, USA) was performed on a multifunctional tablet analyzer Cytation™3 (BioTek Instruments, Inc., Winooski, VT, USA) at λex = 450 nm, λem = 480 nm. The fluorescence intensity of the solution without Aβ1-42 was subtracted from the fluorescence values of solutions containing protein, due to the need to subtract the background fluorescence."}, "[3]": {"test": "Cell viability, MTT test", "assay_type": "cell-based", "details": "human, SH-SY5Y neuroblastoma cells, 24-h exposure, read-out: IC50 cytotoxic action", "experimental": "The culture of human neuroblastoma cells (defined as SH-SY5Y) was cultured in DMEM with the addition of embryonic bovine serum (10%), 2 mM glutamine (DiaM, Moscow, Russia) and penicillin-streptomycin (100 U/Ml–100 µg/mL, PanEco, Moscow, Russia) in conditions of 5% CO2 in the air at 37 °C. Upon reaching 80% confluence, cells in the amount of 1 × 10^4 were placed in 96-well transparent plates and incubated under the same conditions for 24 h. After the incubation time, the cells were exposed to a 24-h exposure to various concentrations of hydroxamic acids dissolved in dimethyl sulfoxide (range from 1 to 100 µM). An equivalent volume of solvent was used as a control (final DMSO content = 1%).\nCell survival analysis was performed using MTT test. To do this, 3-(4,5-dimethylthiazol-2-yl)-2,5-diphenyltetrazolium bromide (MTT, 5 mg/mL, DiaM, Moscow, Russia) was introduced into all wells and incubated at 37 °C for 2 h to restore metabolically active cells of the yellow tetrazolium salt MTT to purple formazane crystals. The resulting formazane was then re-suspended in 200 µL DMSO per well. The optical density was recorded using a multifunctional Cytation™3 flatbed analyzer (BioTek Instruments, Inc., Winooski, VT, USA) at λ = 530 nm."}, "[4]": {"test_system": "5xFAD transgenic mice", "test": "Morris Water Maze test in 5xFAD transgenic mice", "assay_type": "in vivo", "details": "5xFAD mice; for Latency to platform: 15 mg/kg intraperitoneal", "from_the_text": "As part of the in vivo testing of the biological activity of the leader compound, a transgenic mouse model with Alzheimer’s disease 5xFAD at the age of 13 months was used. This line expresses two human genes: APP (amyloid peptide precursor protein gene) with three types of mutations (Swedish (K670N, M671L), Florida (I716V) and London (V717I)), as well as the presenilin 1 gene with mutations (M146L and L286V) characteristic of this disease. Clinically healthy wildtype single-litter mice C57Bl6/j (n = 8) were used as a control group. Transgenic 5xFAD mice were randomly divided into two groups: (1) animals receiving intraperitoneal injections of hydroxamic acid 35a at a dose of 15 mg/kg (10% DMSO + NaCl) for three weeks—the 5xFAD + 35a group (n = 8) and (2) mice receiving an equivalent volume of solvent—the group 5xFAD (n = 8). All animals were kept in standard vivarium conditions at a temperature of 22 ± 1 °C and a humidity of 55% indoors with a 12-h light–dark cycle. The animals had no restrictions in the consumption of water and food. The study of the neurobehavioral profile was started on the 15th day of the experiment.\nThe Morris Water Maze test was performed for five consecutive days to assess the formation of spatial learning and memory dependent on the hippocampus.\nThe installation consisted of a pool (Open Science, Moscow, Russia) with a diameter of 150 cm, filled to a depth of 40 cm with water (22 ± 1 °C). The lighting conditions were as follows: the dark side of the pool—50 lux; the light side—75 lux. […]\nTesting was carried out according to a standard protocol, where for the first four days mice were placed in a pool with a platform hidden under water (1.5 cm below the water surface) in one of the quadrants of the pool. […] To do this, the animals were placed in the pool for 90 s and a number of indicators of the neurobehavioral profile were recorded.\nAll experimental attempts in the Morris water maze were recorded on a camera capturing video images from above the pool, which were processed using EthoVision software."}}}
{"molecule": "C=C(C)[C@@H]1CC=C(CNC(=O)/C=C/c2ccc(C(=O)NO)cc2)CC1", "note": "[Compound 35a, (S,E)-N-hydroxy-4-(3-oxo-3-(((4-(prop-1-en-2-yl)cyclohex-1-en-1-yl)methyl)amino)prop-1-en-1-yl)benzamide]", "values": [{"measurement": "DPPH value (TE)", "setting": "[1]", "result": 0.88, "unit": "TE"}, {"measurement": "inhibition at 100 µM", "setting": "[2]", "result": 73.9, "unit": "%"}, {"measurement": "IC50 at 24 h", "setting": "[3]", "result": "89.2 ± 2.09", "unit": "µM"}, {"measurement": "Latency to platform", "setting": "[4]; first day of training", "result": "55.70 ± 2.10", "unit": "s"}, {"measurement": "Latency to platform", "setting": "[4]; fourth day of training, p = 0.039 vs day 1", "result": "40.93 ± 5.47", "unit": "s"}, {"measurement": "number of entrances to the target quadrant, Probe trial", "setting": "[4]; 15 mg/kg, fifth day, p = 0.203 vs C57Bl6/j", "result": "same number of entrances to the target quadrant of the maze was found with the control group"}]}
